In PMC9429672, “Structure and diffusive dynamics of aspartate α-decarboxylase (ADC) liganded with D-serine in aqueous solution” (Physical Chemistry Chemical Physics, 2022):

Target: T1, aspartate α-decarboxylase (ADC) (Escherichia coli, UniProt A0A4Y8GT61)
T1 construct: gene panD; recombinant, purified from E. coli by earlier protocols; zymogen self-cleaved into alpha and beta chains, pyruvoyl cofactor at beta N-terminus; homotetramer
Assay: X-ray crystal structure of soaked crystal
Type: binding
Details: crystals in 1.8 M ammonium sulphate, 100 mM sodium citrate pH 4.5, D-serine soak about 2 min; active site; two ligand conformers (60% / 40% occupancy); inhibitor

SMILES: N[C@H](CO)C(=O)O [D-serine]
- X-ray crystal structure of soaked crystal: The crystal structure of ADC in complex with D-serine was determined
